One assay concerns the target T1, CXCR4 (h) (Homo sapiens, UniProt P61073).
T1 construct: expressed in transfected cells; host or cells: CHO cells
Nature of the assay: CXCR4 (h) cellular antagonist effect, impedance by dielectric spectroscopy, stimulated with 1 nM SDF-1α. Type of assay: cell-based. The note with it: recombinant human CXCR4 in CHO cells, 28° C. As to the method:
FIGS. 4A and 4B show determination of CXCR4 (h) inhibitory effect for, A) BQ-788 and B) BQ-788-B, a specifically deuterated ETRB antagonist (i.e., “Compound 1”). Cellular agonist effect was calculated as a % of control response to a known reference agonist for CXCR4 (h), and cellular antagonist effect was calculated as a % inhibition of control reference agonist response for CXCR4.
Determination of CXCR4 inhibitory effect. The inhibitory effect on CXCR4 (h) was determined for BQ-788 (FIG. 4A), and BQ-788 (FIG. 4B) BQ-788-B (i.e., “Compound 1”). Cellular agonist effect was calculated as a % of control response to a known reference agonist for CXCR4 (h), and cellular antagonist effect was calculated as a % inhibition of control reference agonist response for CXCR4. Recombinant human CXCR4 was expressed in CHO cells, and stimulated with 1 nM SDF-1α and incubated at 28° C. Dielectric spectroscopy was used to measure impedance of the cells.

The subject of a further assay is ETBR. Description: Plasma ET-1 ELISA after IV infusion, indirect measure of ETBR engagement. Type of assay: in vivo. The note with it: rats, 250 μg/kg IV infusion. As to the method: Briefly, rats (N=4 animals per timepoint) were administered either BQ-788 or the deuterated form, BQ-788-B at a dose of 250 μg/kg via IV infusion. Plasma samples were collected at various time points and ET-1 ELISA performed. BQ788 and BQ788-B are peptide drugs that are rapidly degraded in plasma and thus drug levels are difficult to detect directly. […] As such, plasma levels of ET-1 are commonly used as an indirect measure of BQ-788 biologic activity.

Another assay has as its target T2, ETA (h) (Homo sapiens, UniProt P25101).
T2 sequence (P25101 21-427): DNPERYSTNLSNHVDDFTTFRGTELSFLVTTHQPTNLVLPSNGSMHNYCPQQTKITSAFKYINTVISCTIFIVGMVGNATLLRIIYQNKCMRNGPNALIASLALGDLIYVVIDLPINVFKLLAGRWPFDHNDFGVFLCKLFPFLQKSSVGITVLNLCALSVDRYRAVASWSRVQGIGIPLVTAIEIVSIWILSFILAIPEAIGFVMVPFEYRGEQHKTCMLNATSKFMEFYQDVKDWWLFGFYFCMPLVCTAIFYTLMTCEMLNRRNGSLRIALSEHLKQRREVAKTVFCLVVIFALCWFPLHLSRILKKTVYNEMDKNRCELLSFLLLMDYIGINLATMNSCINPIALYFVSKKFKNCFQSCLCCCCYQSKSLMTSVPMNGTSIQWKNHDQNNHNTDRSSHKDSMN
Nature of the assay: ETA (h) cellular antagonist effect. It is filed as cell-based. The procedure: FIGS. 5A and 5B show determination of ETA (h) inhibitory effect for A) BQ-788 and B) BQ-788-B, a specifically deuterated ETRB antagonist. Cellular agonist effect was calculated as a % of control response to a known reference agonist for ETA (h), and cellular antagonist effect was calculated as a % inhibition of control reference agonist response for ETA.
Cellular agonist effect was calculated as a % of control response to a known reference agonist for ETA (h), and cellular antagonist effect was calculated as a % inhibition of control reference agonist response for ETA.

A further assay deals with T3, ETB (h) (Homo sapiens, UniProt P24530).
T3 sequence (P24530 27-442): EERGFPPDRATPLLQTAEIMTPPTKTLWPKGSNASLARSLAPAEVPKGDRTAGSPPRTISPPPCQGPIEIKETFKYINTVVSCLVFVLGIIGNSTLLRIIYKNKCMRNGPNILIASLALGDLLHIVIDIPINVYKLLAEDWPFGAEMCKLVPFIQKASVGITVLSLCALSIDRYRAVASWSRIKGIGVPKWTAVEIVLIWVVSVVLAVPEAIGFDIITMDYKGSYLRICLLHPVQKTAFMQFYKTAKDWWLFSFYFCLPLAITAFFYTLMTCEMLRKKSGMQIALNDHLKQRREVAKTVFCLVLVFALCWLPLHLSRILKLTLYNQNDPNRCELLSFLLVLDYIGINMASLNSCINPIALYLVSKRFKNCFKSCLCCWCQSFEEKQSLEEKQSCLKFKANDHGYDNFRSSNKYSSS
Description: ETB (h) cellular antagonist effect. It is filed as cell-based. As to the method: Cellular agonist effect was calculated as a % of control response to a known reference agonist for ETB (h), and cellular antagonist effect was calculated as a % inhibition of control reference agonist response for ETB.
Determination of ETBR inhibitory effect for specifically deuterated ETRB antagonists. […] Cellular agonist effect was calculated as a % of control response to a known reference agonist for ETB (h), and cellular antagonist effect was calculated as a % inhibition of control reference agonist response for ETB.

Each structure is given as a SMILES string. “Also recorded” adds a separate entry of the source. Some results are limits rather than exact numbers.

T1 sequence (P61073 whole entry): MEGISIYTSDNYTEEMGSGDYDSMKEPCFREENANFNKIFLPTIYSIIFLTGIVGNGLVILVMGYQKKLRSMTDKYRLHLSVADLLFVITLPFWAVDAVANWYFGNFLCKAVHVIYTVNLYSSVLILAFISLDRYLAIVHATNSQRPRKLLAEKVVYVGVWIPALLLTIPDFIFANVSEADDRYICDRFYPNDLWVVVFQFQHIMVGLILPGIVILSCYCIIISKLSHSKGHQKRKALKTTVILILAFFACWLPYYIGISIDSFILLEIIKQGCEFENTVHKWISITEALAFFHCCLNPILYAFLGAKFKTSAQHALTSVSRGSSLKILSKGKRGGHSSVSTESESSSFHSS

Regarding `[2H]C[C@@H]1CCC[C@H](C[2H])N1C(=O)N[C@@H](CC(C)(C)C)C(=O)N[C@H](Cc1cn(C(=O)OC)c2ccccc12)C(=O)N[C@H](CCCC)C(=O)O` [BQ-788-B], the “IC50, inhibition of control reference agonist response for CXCR4 (h)” value at CXCR4 (h) was “not calculable”. Moreover, the “plasma ET-1 response: prolonged peak out to” value with ETBR (ET-1 ELISA) was “about 3 hours”. Further, the “biologic activity in vivo by plasma ET-1 (duration and amplitude of response)” value in the assay on ETBR (compared with non-deuterated BQ-788) was “enhanced duration and amplitude of response relative to the undeuterated form; also recorded: enhanced biological activity relative to BQ-788”. In addition, the “IC50, inhibition of control reference agonist response for ETA (h)” value on ETA (h) is recorded as “not calculable”. Moreover, at ETB (h) (read-out: IC50, inhibition of control reference agonist response for ETB (h)), the IC50 was determined as 96 nM.
With `CCCC[C@@H](NC(=O)[C@@H](Cc1cn(C(=O)OC)c2ccccc12)NC(=O)[C@H](CC(C)(C)C)NC(=O)N1[C@H](C)CCC[C@@H]1C)C(=O)O` [BQ-788], on CXCR4 (h) (read-out: IC50, inhibition of control reference agonist response for CXCR4 (h)), the IC50 is > 1000 nM. In addition, the “IC50, inhibition of control reference agonist response for ETA (h)” value on ETA (h) was “not calculable”. In addition, at ETB (h), the affinity, expressed as Kd, was 13 nM.

For the origin of these results see US12077604B2, “Deuterated compounds, compositions, and methods for treating cancers associated with ETBR activation” (ENB Therapeutics Inc., priority 2018, dated 2024).
